Measured values from patent US11407715B2, “Substituted indoline derivatives as dengue viral replication inhibitors” (JANSSEN PHARMACEUTICALS, INC., priority 2017, dated 2022).

Legend:
DENV-4 strain H241 = assay: Tetravalent RT-qPCR assay, serotype 4; assay type: cell-based, Dengue virus; conditions: RT-qPCR serotype 4 H241, Vero cells
Experimental: (§1) The antiviral activity of the compounds of the invention was tested against DENV-1 strain TC974#666 (NCPV), DENV-2 strain 16681, DENV-3 strain H87 (NCPV) and DENV-4 strain H241 (NCPV) in a RT-qPCR assay. Therefore, Vero cells were infected with either DENV-1, or -2, or -3, or -4 in the presence or absence of test compounds. At day 3 post-infection, the cells were lysed and cell lysates were used to prepare cDNA of both a viral target (the 3′UTR of DENV; Table 2) and a cellular reference gene (β-actin, Table 2). Subsequently, a duplex real time PCR was performed on a Lightcycler480 instrument. The generated Cp value is inversely proportional to the amount of RNA expression of these targets. Inhibition of DENV replication by a test compound results in a shift of Cp's for the 3′UTR gene. On the other hand, if a test compound is toxic to the cells, a similar effect on β-actin expression will be observed. The comparative ΔΔCp method is used to calculate ECs50, which is based on the relative gene expression of the target gene (3′UTR) normalized with the cellular housekeeping gene (β-actin). In addition, CC50 values are determined based on the Cp values acquired for the housekeeping gene β-actin.
(§2) The culture medium consisted of minimal essential medium supplemented with 2% of heat-inactivated fetal calf serum, 0.04% gentamycin (50 mg/mL) and 2 mM of L-glutamine. Vero cells, obtained from ECACC, were suspended in culture medium and 75 μL/well was added in 96-well plates (10000 cells/well), which already contain the antiviral compounds. […] In addition, each plate contains wells which are assigned as virus controls (containing cells and virus in the absence of compound) and cell controls (containing cells in the absence of virus and compound). Once the cells were added in the plates, the plates were incubated in a fully humidified incubator (37° C., 5% CO2) until the next day. Dengue viruses serotype-1, 2, 3 and 4 were diluted in order to obtain a Cp of ˜22-24 in the assay. Therefore, 25 μL of virus suspension was added to all the wells containing test compound and to the wells assigned as virus control. In parallel, 25 μL of culture medium was added to the cell controls. Next, the plates were incubated for 3 days in a fully humidified incubator (37° C., 5% CO2). After 3 days, the supernatant was removed from the wells and the cells were washed twice with ice-cold PBS (˜100 μL). The cell pellets within the 96-well plates were stored at −80° C. for at least 1 day. Next, RNA was extracted using the Cells-to-CT™ lysis kit, according to the manufacturer's guideline (Life Technologies). The cell lysates can be stored at −80C or immediately used in the reverse transcription step.
(§3) In preparation of the reverse transcription step, mix A (table 3A) was prepared and 7.57 μL/well was dispensed in a 96-well plate. After addition of 5 μL of the cell lysates, a five minute denaturation step at 75° C. was performed (table 3B). Afterwards, 7.43 μL of mix B was added (table 3C) and the reverse transcription step was initiated (table 3D) to generate cDNA.
(§4) Finally, a RT-qPCR mix was prepared, mix C (table 4A), and 22.02 μL/well was dispensed in 96-well LightCycler qPCR plates to which 3 μL of cDNA was added and the qPCR was performed according to the conditions in table 4B on a LightCycler 480.
(§5) Using the LightCycler software and an in-house LIMS system, dose response curves for each compound were calculated and the half maximal effective concentration (EC50) and the half maximal cytotoxic concentration (CC50) were determined (Tables 5-8).

DENV-2 16681 strain = assay: microbe, parasite or virus in culture; assay type: cell-based, Dengue virus; conditions: for EC50: DENV-2 16681 eGFP, Vero cells, MOI 0.5, 3 days; for SI: SI=CC50/EC50, DENV-2 antiviral assay
DENV-3 strain H87 = assay: Tetravalent RT-qPCR assay, serotype 3; assay type: cell-based, Dengue virus; conditions: RT-qPCR serotype 3 H87, Vero cells
Experimental: as §1, §2, §3, §4, §5

DENV-1 strain TC974#666 = assay: Tetravalent RT-qPCR assay, serotype 1; assay type: cell-based, Dengue virus; conditions: RT-qPCR serotype 1 TC974#666, Vero cells
Experimental: as §1, §2, §3, §4, §5

Vero cells = conditions: African green monkey
DENV-2 strain 16681 = assay: Tetravalent RT-qPCR assay, serotype 2; assay type: cell-based, Dengue virus; conditions: RT-qPCR serotype 2 16681, Vero cells
Experimental: as §1, §2, §3, §4, §5

Row | Compound | EC50 (DENV-4 strain H241) [nM] | EC50 (DENV-2 16681 strain) [nM] | SI (DENV-2 16681 strain) | EC50 (DENV-3 strain H87) [nM] | EC50 (DENV-1 strain TC974#666) [nM] | CC50 (Vero cells) [nM] | EC50 (DENV-2 strain 16681) [nM] | EC50 (DENV-4 strain H241; Dengue virus, DENV4, Vero) [nM] | EC50 (DENV-3 strain H87; Dengue virus, DENV3, Vero) [nM] | EC50 (DENV-1 strain TC974#666; Dengue virus, DENV1, Vero) [nM] | EC50 (DENV-2 strain 16681; Dengue virus, DENV2, Vero) [nM]
1 | COc1cc(NC2CC(C(=O)O)C2)cc(NC(C(=O)N2CCc3ccc(OC(F)(F)F)cc32)c2ccc(Cl)cc2)c1 (single isomer, unassigned) [Compound 33D] | 22 | 0.52 | 39000 | 2.3 | 0.48 | 18000 | 0.66 |  |  |  | 
2 | COc1cc(NC(C(=O)N2CCc3ccc(OC(F)(F)F)cc32)c2ccc(Cl)cc2)cc(OC23CC(C(=O)O)(C2)C3)c1 (single isomer, unassigned) [Compound 9B] |  | 0.39 | 32500 |  |  | 12000 |  | 36 | 8 | 0.81 | 0.5
3 | COc1cc(NC(C(=O)N2CCc3ccc(OC(F)(F)F)cc32)c2ccc(Cl)cc2OC)cc(OCCC(C)C(=O)O)c1 (single isomer, unassigned) [Compound 17D] | 15 | 0.12 | >9720 | 2.7 | 0.21 | 14000 | 0.1 |  |  |  | 
4 | COc1cc(NC(C(=O)N2CCc3ccc(OC(F)(F)F)cc32)c2ccc(Cl)cc2)cc(OCC2CC(C(=O)O)C2)c1 (stereo not drawn) [Compound 10B] |  | 0.11 | 109987 |  |  | 11000 |  | 22 | 2.9 | 0.27 | 0.11
5 | COc1cc(NC(C(=O)N2CCc3cc(OC)c(C(F)(F)F)cc32)c2ccc(Cl)cc2)cc(OCC2CC(C(=O)O)C2)c1 (stereo not drawn) [Compound 25B] | 55 | 0.28 | 52900 | 6.3 | 1.3 | 13000 | 0.27 |  |  |  | 
6 | COc1cc(NC(C(=O)N2CCc3cc(F)c(OC(F)(F)F)cc32)c2ccc(Cl)cc2)cc(OCC2CC(C(=O)O)C2)c1 (stereo not drawn) [Compound 31A] | 17 | 0.2 | 70300 | 1.5 | 0.19 | 12000 | 0.11 |  |  |  | 
7 | COc1cc(CCCC(=O)O)cc(NC(C(=O)N2CCc3ccc(OC(F)(F)F)cc32)c2ccc(Cl)cc2)c1 (single isomer, unassigned) [Compound 15B] |  | 0.45 | 24900 |  |  | 12000 |  | 35 | 2.8 | 0.24 | 0.23
8 | COc1cc(NC(C(=O)N2CCc3ccc(OC(F)(F)F)cc32)c2ccc(Cl)cc2)cc(OCCC(=O)O)c1 (single isomer, unassigned) [Compound 12B] |  | 0.69 | 21500 |  |  | 14000 |  | 39 | 4.7 | 0.47 | 0.53
9 | COc1cc(NC(C(=O)N2CCc3cc(OC)c(C(F)(F)F)cc32)c2ccc(Cl)cc2)cc(OCC2CC2C(=O)O)c1 (stereo not drawn) [Compound 22AB] | 3.3 | 0.034 | >196427 | 0.49 | 0.091 | 12000 | 0.029 |  |  |  | 
10 | COc1cc(NC(C(=O)N2CCc3ccc(OC(F)(F)F)cc32)c2ccc(Cl)cc2)cc(OCCC(C)C(=O)O)c1 (single isomer, unassigned) [Compound 1D] | 24 | 0.23 | 57700 | 3.4 | 0.27 | 12000 | 0.23 |  |  |  | 
11 | COc1cc(NC(C(=O)N2CCc3cc(OC)c(C(F)(F)F)cc32)c2ccc(Cl)cc2)cc(OCC2CC(C(=O)O)C2)c1 (stereo not drawn) [Compound 24B] |  | 0.34 | 43100 | 14 |  | 12000 |  | 66 |  | 2.2 | 0.26
12 | COc1cc(NC(C(=O)N2CCc3ccc(OC(F)(F)F)cc32)c2ccc(Cl)cc2)cc(OCC2CC2C(=O)O)c1 (stereo not drawn) [Compound 6BB] | 20 | 0.18 | 83800 | 1.6 | 0.13 | 12000 | 0.12 |  |  |  | 
13 | COc1cc(NC(C(=O)N2CCc3ccc(OC(F)(F)F)cc32)c2ccc(Cl)cc2OC)cc(OCC2CC2C(=O)O)c1 (stereo not drawn) [Compound 19AB] | 0.69 | 0.012 | >390600 | 0.14 | 0.021 | 12000 | 0.014 |  |  |  | 
14 | COc1cc(NC(C(=O)N2CCc3ccc(OC(F)(F)F)cc32)c2ccc(Cl)cc2)cc(OCC2CC2C(=O)O)c1 (stereo not drawn) [Compound 6AB] | 2.9 | 0.016 | >199223 | 0.13 | 0.022 | 12000 | 0.017 |  |  |  | 
15 | COc1cc(NC(C(=O)N2CCc3ccc(OC(F)(F)F)cc32)c2ccc(Cl)cc2)cc(OCC2CC(C(=O)O)C2)c1 (stereo not drawn) [Compound 11B] | 17 | 0.11 | 118692 | 1.8 | 0.2 | 11000 | 0.1 |  |  |  | 
16 | COc1cc(NC(C(=O)N2CCc3cc(OC)c(C(F)(F)F)cc32)c2ccc(Cl)cc2)cc(OC2CC(C(=O)O)C2)c1 (stereo not drawn) [Compound 23B] |  | 0.062 | >88755 |  |  | 12000 |  | 2.7 | 0.33 | 0.092 | 0.034
17 | COc1cc(NC(C(=O)N2CCc3ccc(OC(F)(F)F)cc32)c2ccc(Cl)cc2)cc(OC2CC(C(=O)O)C2)c1 (stereo not drawn) [Compound 7B] | 13 | 0.12 | 121027 | 1.8 | 0.15 | 13000 | 0.12 |  |  |  | 
18 | COc1cc(NC(C(=O)N2CCc3cc(OC)c(Cl)cc32)c2ccc(Cl)cc2)cc(OC2CC(C(=O)O)C2)c1 (single isomer, unassigned) [Compound 32B] |  | 0.081 | >230623 |  |  | 14000 |  | 10 | 0.57 | 0.11 | 0.033
19 | COc1cc(NC2CC(C(=O)O)C2)cc(NC(C(=O)N2CCc3ccc(OC(F)(F)F)cc32)c2ccc(Cl)cc2)c1 (single isomer, unassigned) [Compound 33C] | 340 | 3.2 | 5930 | 11 | 0.97 | 19000 |  |  |  |  | 1
20 | COc1cc(NC(C(=O)N2CCc3ccc(OC(F)(F)F)cc32)c2ccc(Cl)cc2OC)cc(OCCC(C)(C)C(=O)O)c1 (single isomer, unassigned) [Compound 18B] |  | 0.28 | 62700 |  |  | 12000 |  | 33 | 4.3 | 0.55 | 0.34
21 | COc1cc(NC(C(=O)N2CCc3ccc(OC(F)(F)F)cc32)c2ccc(Cl)cc2OC)cc(OCCC(C)C(=O)O)c1 (single isomer, unassigned) [Compound 17C] |  | 0.23 | 39300 |  |  | 12000 |  | 16 | 3.6 | 0.19 | 0.11
